SMILES strings stand for the structures. *1 amine or outer side, *2 acyl side, *3 side chain or, on linkers, in order; H or OH if unused. Where a SMILES comes first, the peptide text is derived from it. Bridges are numbered along the chain shown (N, C = ends). Roman numbers before positions name the chains, in order. [ ]: non-standard residue; d: D form. Phe(4-CF3) = N[C@@H](Cc1ccc(C(F)(F)F)cc1)C(=O)O; Phe(4-tBu) = CC(C)(C)c1ccc(C[C@H](N)C(=O)O)cc1; 1Nal = N[C@@H](Cc1cccc2ccccc12)C(=O)O; Diglycolyl = O=C(COCC(=O)[*:2])[*:1]; NMeR = CN[C@@H](CCCNC(=N)N)C(=O)O; Tic = O=C(O)[C@@H]1Cc2ccccc2CN1; β3hE = N[C@@H](CCC(=O)O)CC(=O)O; X1 = O=C(c1ccccc1C[*:2])[*:1]; Pen = CC(C)(S)[C@H](N)C(=O)O; hCys = N[C@@H](CCS)C(=O)O

One test addresses T1, RPMI 8866 cells (Homo sapiens, UniProt P13612+P26010).
T1 sequence (P13612 34-1032): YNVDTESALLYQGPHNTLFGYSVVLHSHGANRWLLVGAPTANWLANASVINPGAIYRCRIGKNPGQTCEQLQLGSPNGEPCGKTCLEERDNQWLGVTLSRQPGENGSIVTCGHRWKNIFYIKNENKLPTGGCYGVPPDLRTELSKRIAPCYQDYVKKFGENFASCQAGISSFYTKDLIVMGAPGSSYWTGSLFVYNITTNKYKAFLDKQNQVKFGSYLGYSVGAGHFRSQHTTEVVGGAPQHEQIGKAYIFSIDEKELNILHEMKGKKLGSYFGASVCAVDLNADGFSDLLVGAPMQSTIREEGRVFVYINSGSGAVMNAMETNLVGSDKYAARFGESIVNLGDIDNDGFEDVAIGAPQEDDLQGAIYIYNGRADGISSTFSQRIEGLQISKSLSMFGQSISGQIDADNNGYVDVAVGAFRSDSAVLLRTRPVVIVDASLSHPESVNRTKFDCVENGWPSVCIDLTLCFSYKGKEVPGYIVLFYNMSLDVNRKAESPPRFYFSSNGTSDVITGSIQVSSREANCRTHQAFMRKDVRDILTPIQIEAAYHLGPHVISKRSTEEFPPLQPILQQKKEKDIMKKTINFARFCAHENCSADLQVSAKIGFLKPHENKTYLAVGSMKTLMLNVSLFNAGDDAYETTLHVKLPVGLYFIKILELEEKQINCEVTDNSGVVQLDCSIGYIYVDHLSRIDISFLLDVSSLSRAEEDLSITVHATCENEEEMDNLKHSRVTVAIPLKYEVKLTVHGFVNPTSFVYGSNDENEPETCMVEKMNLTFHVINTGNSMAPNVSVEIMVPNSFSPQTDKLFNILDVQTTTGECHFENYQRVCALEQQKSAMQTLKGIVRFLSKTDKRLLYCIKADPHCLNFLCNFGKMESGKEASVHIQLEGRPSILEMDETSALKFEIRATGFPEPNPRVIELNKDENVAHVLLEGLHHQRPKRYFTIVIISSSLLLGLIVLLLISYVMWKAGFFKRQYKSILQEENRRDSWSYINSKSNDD
T1 sequence (P26010 20-798): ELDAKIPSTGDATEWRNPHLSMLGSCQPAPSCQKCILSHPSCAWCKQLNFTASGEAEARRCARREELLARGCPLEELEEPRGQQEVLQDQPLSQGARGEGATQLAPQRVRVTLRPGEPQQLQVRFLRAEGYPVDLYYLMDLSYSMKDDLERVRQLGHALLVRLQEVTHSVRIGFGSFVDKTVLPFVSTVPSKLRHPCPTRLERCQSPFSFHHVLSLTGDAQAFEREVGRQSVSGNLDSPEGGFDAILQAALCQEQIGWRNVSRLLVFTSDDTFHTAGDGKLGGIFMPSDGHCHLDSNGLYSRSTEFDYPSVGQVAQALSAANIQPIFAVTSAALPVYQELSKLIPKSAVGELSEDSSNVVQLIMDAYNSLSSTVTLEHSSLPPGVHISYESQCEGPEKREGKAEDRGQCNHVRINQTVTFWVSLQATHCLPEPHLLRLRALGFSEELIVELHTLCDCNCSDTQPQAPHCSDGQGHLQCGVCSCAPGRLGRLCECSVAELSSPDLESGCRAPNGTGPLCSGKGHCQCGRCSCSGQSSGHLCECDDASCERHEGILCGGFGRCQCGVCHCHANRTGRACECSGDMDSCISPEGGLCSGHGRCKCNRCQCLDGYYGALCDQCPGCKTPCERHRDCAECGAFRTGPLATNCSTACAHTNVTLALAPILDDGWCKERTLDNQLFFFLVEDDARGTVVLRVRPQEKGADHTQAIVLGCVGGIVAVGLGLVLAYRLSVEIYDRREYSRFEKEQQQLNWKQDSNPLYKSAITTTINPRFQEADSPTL
Description: α4β7-MAdCAM Cell Adhesion Assay. The class given is cell-based. The conditions noted are these: thioether monomer peptides, Table 6; read-out: Cell-Adhesion A4B7. An outline of the steps: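 Peptide inhibition of adhesion measured with MAdCAM-1/Fc chimera immobilised at 200 ng/well and MnCl2-activated (1 mM) RPMI 8866 cells, 30-45 min at 37° C. Adherent cells remaining after three washes detected by MTT reduction at 570 nm, corrected for no-cell wells, giving dose response.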
Take `CC(C)C[C@@H]1NC(=O)[C@H]([C@@H](C)O)NC(=O)[C@H](CC(=O)O)NC(=O)[C@H](CO)NC(=O)[C@H](CCCNC(=N)N)N(C)C(=O)c2ccccc2CSC(C)(C)[C@@H](C(=O)N[C@@H](Cc2ccc(C(C)(C)C)cc2)C(=O)N[C@@H](CCC(=O)O)CC(N)=O)NC1=O` [compound 134] ([NMeR]SDTL[Pen][Phe(4-tBu)][β3hE]-NH2; linker N-6 via X1): the IC50 is < 25 nM.

Still in this test, the particulars now being: thioether peptide dimers, Table 7; read-out: Cell-Adhesion A4B7.
Take `CC(C)C[C@@H]1NC(=O)[C@H]([C@@H](C)O)NC(=O)[C@H](CC(=O)O)NC(=O)[C@H](CO)NC(=O)[C@H](CCCNC(=N)N)N(C)C(=O)CSC[C@@H](C(=O)N[C@@H](Cc2c[nH]c3ccccc23)C(=O)N[C@H](CCCCNC(=O)COCC(=O)NCCCC[C@@H](NC(=O)[C@H](Cc2c[nH]c3ccccc23)NC(=O)[C@@H]2CSCC(=O)N(C)[C@@H](CCCNC(=N)N)C(=O)N[C@@H](CO)C(=O)N[C@@H](CC(=O)O)C(=O)N[C@@H]([C@@H](C)O)C(=O)N[C@@H](CC(C)C)C(=O)N2)C(N)=O)C(N)=O)NC1=O` [compound 143]: the IC50 lay in the range of 100 to 1000 nM.

`CC(C)C[C@@H]1NC(=O)[C@H]([C@@H](C)O)NC(=O)[C@H](CC(=O)O)NC(=O)[C@H](CO)NC(=O)[C@H](CCCNC(=N)N)N(C)C(=O)c2ccccc2CSC[C@H](C(=O)N[C@@H](Cc2c[nH]c3ccccc23)C(=O)N[C@@H](CCC(=O)O)CC(=O)N[C@H](CCCCNC(=O)COCC(=O)NCCCC[C@@H](NC(=O)C[C@H](CCC(=O)O)NC(=O)[C@H](Cc2c[nH]c3ccccc23)NC(=O)[C@H]2CSCc3ccccc3C(=O)N(C)[C@@H](CCCNC(=N)N)C(=O)N[C@@H](CO)C(=O)N[C@@H](CC(=O)O)C(=O)N[C@@H]([C@@H](C)O)C(=O)N[C@@H](CC(C)C)C(=O)N2)C(N)=O)C(N)=O)NC1=O` [compound 156] (I: [NMeR]SDTL[dC]W[β3hE][dK]-NH2 / II: [NMeR]SDTL[dC]W[β3hE][dK]-NH2; linker I:9-II:9 via Diglycolyl; linker I:N-I:6, II:N-II:6 via X1): the IC50 fell in the range of 25 to 100 nM.

As to `CC(C)C[C@@H]1NC(=O)[C@H]([C@@H](C)O)NC(=O)[C@H](CC(=O)O)NC(=O)[C@H](CO)NC(=O)[C@H](CCCNC(=N)N)N(C)C(=O)c2ccccc2CSCC[C@@H](C(=O)N[C@@H](Cc2c[nH]c3ccccc23)C(=O)N[C@@H](CCC(=O)O)C(=O)N[C@H](CCCCNC(=O)COCC(=O)NCCCC[C@@H](NC(=O)[C@H](CCC(=O)O)NC(=O)[C@H](Cc2c[nH]c3ccccc23)NC(=O)[C@@H]2CCSCc3ccccc3C(=O)N(C)[C@@H](CCCNC(=N)N)C(=O)N[C@@H](CO)C(=O)N[C@@H](CC(=O)O)C(=O)N[C@@H]([C@@H](C)O)C(=O)N[C@@H](CC(C)C)C(=O)N2)C(N)=O)C(N)=O)NC1=O` [compound 157] (I: [NMeR]SDTL[hCys]WE[dK]-NH2 / II: [NMeR]SDTL[hCys]WE[dK]-NH2; linker I:9-II:9 via Diglycolyl; linker I:N-I:6, II:N-II:6 via X1), the IC50 lay in the range of 25 to 100 nM.

`CC(C)C[C@@H]1NC(=O)[C@H]([C@@H](C)O)NC(=O)[C@H](CC(=O)O)NC(=O)[C@H](CO)NC(=O)[C@H](CCCNC(=N)N)N(C)C(=O)c2ccccc2CSC(C)(C)[C@@H](C(=O)N[C@@H](Cc2cccc3ccccc23)C(=O)N[C@H](CCC(=O)O)C(=O)N[C@H](CCCCNC(=O)COCC(=O)NCCCC[C@@H](NC(=O)[C@@H](CCC(=O)O)NC(=O)[C@H](Cc2cccc3ccccc23)NC(=O)[C@H]2NC(=O)[C@H](CC(C)C)NC(=O)[C@H]([C@@H](C)O)NC(=O)[C@H](CC(=O)O)NC(=O)[C@H](CO)NC(=O)[C@H](CCCNC(=N)N)N(C)C(=O)c3ccccc3CSC2(C)C)C(N)=O)C(N)=O)NC1=O` [compound 158] (I: [NMeR]SDTL[Pen][1Nal][dE][dK]-NH2 / II: [NMeR]SDTL[Pen][1Nal][dE][dK]-NH2; linker I:9-II:9 via Diglycolyl; linker I:N-I:6, II:N-II:6 via X1): the IC50 is < 25 nM.

On to `CC(C)C[C@@H]1NC(=O)[C@H]([C@@H](C)O)NC(=O)[C@H](CC(=O)O)NC(=O)[C@H](CO)NC(=O)[C@H](CCCNC(=N)N)N(C)C(=O)c2ccccc2CSC(C)(C)[C@@H](C(=O)N[C@@H](Cc2ccc(C(F)(F)F)cc2)C(=O)N[C@@H](CCC(=O)O)C(=O)N[C@H](CCCCNC(=O)COCC(=O)NCCCC[C@@H](NC(=O)[C@H](CCC(=O)O)NC(=O)[C@H](Cc2ccc(C(F)(F)F)cc2)NC(=O)[C@H]2NC(=O)[C@H](CC(C)C)NC(=O)[C@H]([C@@H](C)O)NC(=O)[C@H](CC(=O)O)NC(=O)[C@H](CO)NC(=O)[C@H](CCCNC(=N)N)N(C)C(=O)c3ccccc3CSC2(C)C)C(N)=O)C(N)=O)NC1=O` [compound 166] (I: [NMeR]SDTL[Pen][Phe(4-CF3)]E[dK]-NH2 / II: [NMeR]SDTL[Pen][Phe(4-CF3)]E[dK]-NH2; linker I:9-II:9 via Diglycolyl; linker I:N-I:6, II:N-II:6 via X1), for which the IC50 is < 25 nM.

Take `CC(C)C[C@@H]1NC(=O)[C@H]([C@@H](C)O)NC(=O)[C@H](CC(=O)O)NC(=O)[C@H](CO)NC(=O)[C@H](CCCNC(=N)N)N(C)C(=O)c2ccccc2CSC(C)(C)[C@@H](C(=O)N[C@@H](Cc2cccc3ccccc23)C(=O)N[C@@H](CCC(=O)O)C(=O)N[C@H](CCCCNC(=O)COCC(=O)NCCCC[C@@H](NC(=O)[C@H](CCC(=O)O)NC(=O)[C@H](Cc2cccc3ccccc23)NC(=O)[C@H]2NC(=O)[C@H](CC(C)C)NC(=O)[C@H]([C@@H](C)O)NC(=O)[C@H](CC(=O)O)NC(=O)[C@H](CO)NC(=O)[C@H](CCCNC(=N)N)N(C)C(=O)c3ccccc3CSC2(C)C)C(N)=O)C(N)=O)NC1=O` [compound 167] (I: [NMeR]SDTL[Pen][1Nal]E[dK]-NH2 / II: [NMeR]SDTL[Pen][1Nal]E[dK]-NH2; linker I:9-II:9 via Diglycolyl; linker I:N-I:6, II:N-II:6 via X1): the IC50 was < 25 nM.

In the case of `CC(C)C[C@@H]1NC(=O)[C@H]([C@@H](C)O)NC(=O)[C@H](CC(=O)O)NC(=O)[C@H](CO)NC(=O)[C@H](CCCNC(=N)N)N(C)C(=O)c2ccccc2CSC(C)(C)[C@@H](C(=O)N[C@@H](Cc2ccc(-c3ccccc3)cc2)C(=O)N[C@H](CCC(=O)O)C(=O)N[C@H](CCCCN)C(N)=O)NC1=O` [compound 178] (HELM PEPTIDE1{[meR].S.D.T.L.[Pen].[O=C([C@H](Cc1ccc(-c2ccccc2)cc1)N[*:1])[*:2]].[dE].[dK].[am]}|CHEM1{[O=C(c1ccccc1C[*:2])[*:1]]}$PEPTIDE1,CHEM1,1:R1-1:R1|PEPTIDE1,CHEM1,6:R3-1:R2$$$V2.0), the IC50 is < 25 nM.

As to `CC(C)C[C@@H]1NC(=O)[C@H]([C@@H](C)O)NC(=O)[C@H](CC(=O)O)NC(=O)[C@H](CO)NC(=O)[C@H](CCCNC(=N)N)N(C)C(=O)c2ccccc2CSC[C@@H](C(=O)N2Cc3ccccc3C[C@H]2C(=O)N[C@H](CCC(=O)O)C(=O)N[C@H](CCCCNC(=O)COCC(=O)NCCCC[C@@H](NC(=O)[C@@H](CCC(=O)O)NC(=O)[C@@H]2Cc3ccccc3CN2C(=O)[C@@H]2CSCc3ccccc3C(=O)N(C)[C@@H](CCCNC(=N)N)C(=O)N[C@@H](CO)C(=O)N[C@@H](CC(=O)O)C(=O)N[C@@H]([C@@H](C)O)C(=O)N[C@@H](CC(C)C)C(=O)N2)C(N)=O)C(N)=O)NC1=O` [compound 184] (I: [NMeR]SDTLC[Tic][dE][dK]-NH2 / II: [NMeR]SDTLC[Tic][dE][dK]-NH2; linker I:9-II:9 via Diglycolyl; linker I:N-I:6, II:N-II:6 via X1), the IC50 was < 25 nM.

Values taken from patent publication US20260217767A1, “NOVEL A4B7 THIOETHER PEPTIDE DIMER ANTAGONISTS” (Protagonist Therapeutics, Inc., priority 2014, published 2026).
